The structures appear in SMILES notation.

The values below come from patent publication US8263565B2, “Nanoemulsion comprising metabolites of ginseng saponin as an active component and a method for preparing the same, and a skin-care composition for anti-aging containing the same” (Amorepacific Corporation, priority 2002, dated 2012).

This data set relates to Guinea pig's skin. Description: Skin penetration with Frantz cell, HPLC determination. Format: in vitro ADME. The protocol: Skin penetration was evaluated for Guinea pig's skin with Frantz cell. Before test, abdominal part, a piece of skin as large as 1 cm^2 square was excised. The excised skin was mounted on a Frantz cell with the diameter of 0.9 cm and fixed with clamp. 0.5 ml of test sample (in case of Examples 1˜9 and C. Examples 1˜6, 0.05 ml of sample and distilled water; and in case of Formulations 1˜30 and C. Formulations 1˜15, 0.5 ml of sample only) was placed on one side of skin (donor side). The other side (receiver side) was filled with mixture of distilled water and ethanol (4:1 weight ratio). Test was performed at 32° C., which is skin temperature. Test solvent was sampled at predetermined time intervals from the receiver side, and the amounts of penetrated compound K, ginsenoside F1 and compound Y were determined by HPLC system. The data were indicated in penetrated amount per applied concentration (μg/cm^2/wt %).
In case of purified ginseng saponin, the amount of penetrated saponin was determined. Also, in case of Bio GF1K, the amounts of penetrated compound K, ginsenoside F1 and compound Y were determined and total penetrated amounts were calculated by sum of each peak.
<HPLC Analytic Condition> • Column: C18 (ODS) • Solvent Flow: 1 ml/min • Detection UV: 203 nm • Sample test concentration 5 mg/ml • Sample injection amount: 10 μg • Eluent: Gradient condition • A: Acetonitrile/D.I. water=15/85 • B: Acetonitrile/D.I. water=80/20
<Solvent Gradient Condition>
As to `CC(C)=CCC[C@](C)(O[C@@H]1O[C@H](CO[C@@H]2OC[C@H](O)[C@H](O)[C@H]2O)[C@@H](O)[C@H](O)[C@H]1O)[C@H]1CC[C@]2(C)[C@@H]1[C@H](O)C[C@@H]1[C@@]3(C)CC[C@H](O)C(C)(C)[C@@H]3CC[C@]12C` [compound Y, 20-O-[α-L-arabinopyranosyl(1→6)-β-D-glucopyranosyl]-20(S)-protopanaxadiol], the “skin penetration (comparison in words)” value is “superior effects on skin penetration to purified ginseng saponin”.

With `CC(C)=CCC[C@](C)(O[C@@H]1O[C@H](CO)[C@@H](O)[C@H](O)[C@H]1O)[C@H]1CC[C@]2(C)[C@@H]1[C@H](O)C[C@@H]1[C@@]3(C)CC[C@H](O)C(C)(C)[C@@H]3[C@@H](O)C[C@]12C` [ginsenoside F1, 20-O-β-D-glucopyranosyl-20(S)-protopanaxatriol], the “skin penetration (comparison in words)” value is listed as “superior effects on skin penetration to purified ginseng saponin”.

For the compound `CC(C)=CCC[C@](C)(O[C@@H]1O[C@H](CO)[C@@H](O)[C@H](O)[C@H]1O)[C@H]1CC[C@]2(C)[C@@H]1[C@H](O)C[C@@H]1[C@@]3(C)CC[C@H](O)C(C)(C)[C@@H]3CC[C@]12C` [compound K, 20-O-β-D-glucopyranosyl-20(S)-protopanaxadiol], the “skin penetration (comparison in words)” value is on record as “superior effects on skin penetration to purified ginseng saponin”.
